From patent US20230139826A1 (NONO INC., priority 2020, published 2023)
Residues, ends and D or L forms follow the SMILES beside them.

Assays:
[1] = target: plasmin (Homo sapiens, UniProt P00747)
Protocol: (A) LC/MS spectrum of nerinetide after incubation with plasmin in PBS. 10 uL aliquots of nerinetide (18 mg/mL) and plasmin (1 mg/mL) were incubated in 500 uL tubes of phosphate-buffered saline at 37 C for 5 min and the reaction stopped by cooling to −80 C until tested. […] (B, C) In-vitro effect of rt-PA on nerinetide content in rat (B) and human (C) plasma. Nerinetide was spiked into the plasma samples at t=0 at a concentration of 65 ug/ml, whereas alteplase (rt-PA) was administered as a 60 min infusion at the indicated concentration (D, E) In-vivo effect of the simultaneous administration of nerinetide and rt-PA on Cmax (D) and AUC (E) in the rat. The nerinetide bolus and alteplase (60 min infusion) were started simultaneously through two separate intravenous lines. Symbols represent mean±SD. […] […] (SEQ ID NO:3) (Full-length NA-1, undigested), […] […] (SEQ ID NO:8), […] […] (SEQ ID NO:10).
Direct ELISA of the indicated biotinylated peptides to the PDZ2 domain of PSD-95. […] Symbols indicate the mean±SD of triplicate experiments. […] (B). […] E,F. Time course of nerinetide or D-TAT-L-2B9c content in rat plasma (E) and human plasma (F) during a challenge with tenecteplase (TNK; 37.5 ug/ml or 6.25 ug/ml, respectively). […] (repeated measures two-way ANOVA with a post hoc Sidak's multiple comparisons test, *P<0.01). Symbols are means±SD. […]

[2] = test system: embolic middle cerebral artery occlusion (eMCAO); experiment: Rat embolic middle cerebral artery occlusion model with alteplase reperfusion; assay type: in vivo, Sprague-Dawley rats
Protocol: To test this, male Sprague-Dawley rats (10-12 weeks old; 270-310 g; Charles River, Montreal, QC, Canada) were subjected to embolic middle cerebral artery occlusion (eMCAO), produced by the introduction of an autologous blood thrombus into the middle cerebral artery. Reperfusion was achieved by treatment with intravenous alteplase at a total dose of 5.4 mg/kg beginning at 90 minutes after ischemia onset. Alteplase was administered using the human injection protocol in which 10% of the total dose is given as a bolus, with the remainder 90% of the dose being given over a 60-minute infusion. […] This dose was chosen because in pilot studies, higher doses of alteplase (10× human dose) produced unacceptable mortality rates due to hemorrhagic conversions of strokes. Nerinetide was administered either 30 minutes prior to, or concurrently with, the start of the alteplase administration (FIG. 5A) at a dose of 7.6 mg/kg. […] Infarct volumes, hemispheric swelling and neurological scores were evaluated at 24 hours.
Male Sprague-Dawley rats were subjected to eMCAO as already described. Nerinetide (7.6 mg/kg) or D-Tat-L-2B9c (7.6 mg/kg) were given as bolus injections at 60 minutes. Alteplase (5.4 mg/kg over 60 min) was also started at 60 min after eMCAO, concurrently with the active agent that inhibits PSD-95. Neurological scoring, infarct volume, and hemispheric swelling were assessed at 24 hours (FIG. 8A).
The studies were designed to have 80% power to detect a 40% absolute difference between control and treatment groups at p=0.05. Animal randomization, drug allocation and treatment drug preparation were performed by a research associate not directly involved with surgical or outcome assessment. Nerinetide and D-Tat-L-2B9c were freshly prepared at a concentration of 7.6 mg/mL in 500 uL aliquots. Alteplase was prepared from lyophilized drug and, like matching placebo, stored in identical glass tubes. Drugs were kept at 4° C. until 10 minutes prior to use. The surgeon and the investigators responsible for the surgery, stroke volume measurement, behavioural assessment and statistical analysis were blinded to treatment allocation.

[3] = test system: transient middle cerebral artery occlusion (tMCAO); experiment: Rat transient middle cerebral artery occlusion model
Protocol: Nerinetide and lodoxamide was administered to rats intravenously as a bolus injection, 60 minutes after tMCAo. […] Bars in A and represent mean±SD, with all individual data points plotted. Asterisks in A indicate P<0.01 when compared to the vehicle group (one-way ANOVA post hoc Tukey's correction for multiple comparisons test) N=12-14 animals/group. […] Significant differences are indicated with an asterisk when compared to the vehicle group (Kruskal-Wallis analysis of variance on ranks with a post-hoc Dunn's correction for multiple comparisons test, *P<0.01). Vehicle: PBS alone. Scrambled: ADA peptide incapable of binding PSD-95.
All animals subjected to surgery had their physiological parameters measured prior to MCA occlusion. PE-50 polyethylene tubing was inserted into the right femoral artery for invasive monitoring of mean arterial blood pressure and for obtaining blood samples to measure blood gases (pH, PaO2, and PaCO2), electrolytes (Na^+, K^+, iCa) and plasma glucose at baseline [Blood gas cartridge CG8+, VetScan i-STAT 1 Analyzer].
Infarct volumes and hemispheric swelling were evaluated at 24 hours post-stroke from standard brain slices stained with 2% 2,3,5-triphenyltetrazolium chloride (Sigma Aldrich, St. Louis, Md., USA)(7). Neurologic scoring was conducted at 24 hours after stroke onset using forelimb-placing tests comprising of frontal visual placing, sideways visual placing, frontal tactile placing, sideways tactile placing, and vertical tactile placing (scores range from 0-2 in each component for a maximum of 12 indicating maximum impairment.

[4] = 30-minute dose separation between nerinetide and alteplase

Sequence of plasmin (P00747 581-810 limits assumed, species assumed): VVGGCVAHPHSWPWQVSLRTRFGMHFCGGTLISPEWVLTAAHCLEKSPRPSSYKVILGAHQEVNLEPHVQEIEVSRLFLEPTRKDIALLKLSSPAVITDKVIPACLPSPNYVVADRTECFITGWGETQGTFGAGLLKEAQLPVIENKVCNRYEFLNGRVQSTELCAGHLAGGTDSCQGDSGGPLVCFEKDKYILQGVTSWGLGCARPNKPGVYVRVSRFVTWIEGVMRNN
Sequence of plasmin (P00747 97-580 partner limits assumed, species assumed): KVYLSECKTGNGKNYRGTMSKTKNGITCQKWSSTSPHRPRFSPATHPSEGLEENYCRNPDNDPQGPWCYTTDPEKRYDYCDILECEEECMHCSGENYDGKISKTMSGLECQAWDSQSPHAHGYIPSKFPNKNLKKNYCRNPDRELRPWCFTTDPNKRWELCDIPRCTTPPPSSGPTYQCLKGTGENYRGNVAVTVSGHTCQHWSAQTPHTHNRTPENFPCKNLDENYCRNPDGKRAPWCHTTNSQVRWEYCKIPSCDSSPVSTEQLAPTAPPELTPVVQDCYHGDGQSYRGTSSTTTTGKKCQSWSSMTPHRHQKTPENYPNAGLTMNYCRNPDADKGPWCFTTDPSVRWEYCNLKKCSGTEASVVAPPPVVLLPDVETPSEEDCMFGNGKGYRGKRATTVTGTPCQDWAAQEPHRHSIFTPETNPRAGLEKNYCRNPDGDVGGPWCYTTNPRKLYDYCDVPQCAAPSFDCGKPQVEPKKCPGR

Compound: CC[C@H](C)[C@H](NC(=O)[C@H](CO)NC(=O)[C@H](CO)NC(=O)[C@H](CC(C)C)NC(=O)[C@H](CCCCN)NC(=O)[C@H](CCCN=C(N)N)NC(=O)[C@H](CCCN=C(N)N)NC(=O)[C@H](CCCN=C(N)N)NC(=O)[C@H](CCC(N)=O)NC(=O)[C@H](CCCN=C(N)N)NC(=O)[C@H](CCCN=C(N)N)NC(=O)[C@H](CCCCN)NC(=O)[C@H](CCCCN)NC(=O)[C@H](CCCN=C(N)N)NC(=O)CNC(=O)[C@@H](N)Cc1ccc(O)cc1)C(=O)N[C@@H](CCC(=O)O)C(=O)N[C@@H](CO)C(=O)N[C@@H](CC(=O)O)C(=O)N[C@H](C(=O)O)C(C)C [Nerinetide] (H-YGRKKRRQRRRKLSSIESDV-OH)
- stability alone in phosphate buffered saline [1]: stable
- hemispheric swelling [2, 4]: reducing hemispheric swelling
- neurological scores [2, 4]: improving neurological scores
- reduction of infarction volume ([2]; nerinetide alone 7.6 mg/kg, 60 minutes after eMCAO, 24 hours): 59.2%
- infarction volume ([2]; nerinetide alone 60 minutes after eMCAO (FIG. 5B), control 427±27): 175±40 mm^3
- infarction volume ([2]; nerinetide alone 60 minutes after eMCAO, absence of alteplase (FIG. 8B), control 458±39): 296±66 mm^3
- infarct volume reduction ([2]; nerinetide at 60 minutes followed by alteplase 30 minutes later): 70%
- effect on infarction volume when given concurrently with alteplase ([2]; peptide 7.6 mg/kg and alteplase 5.4 mg/kg both at 60 min after eMCAO): eliminated completely
- neurological function 24 hours after tMCAo ([3]; doses as low as 0.25 mg/kg): improvement
- infarct volume 24 hours after tMCAo ([3]; doses as low as 0.25 mg/kg, vs vehicle): significant reduction
- efficacy in tMCAo ([3]; doses of as little as 0.025 mg/kg): effective
- efficacy in tMCAo ([3]; doses up to at least 25 mg/kg): effective
- reducing infarction volume, hemispheric swelling and improving neurological scores ([3]; rat tMCAO, comparison of the two peptides): equally effective
- dose with the highest efficacy ([3]; rat tMCAo dose-response): about 15 mg/kg
- effective dosage range (reducing infarction size and neurologic deficit) ([3]; rat tMCAo, iv bolus 60 minutes after tMCAo, with lodoxamide): 0.025-25 mg/kg
